Test results taken from patent EP0247971A2, “Novel pharmaceutical compositions comprising and use of cis-6-(4-acetanilido)-8,9-dimethoxy-2-methyl-1,2,3,4,4a,10b-hexahydrobenzo[c][1,6]naphthyridin” (SANDOZ AG, priority 1986, dated 1987).
Where two headings read alike, the source gives them in different places.

Assays:
[1] = test system: guinea-pig peritoneal cavity; assay: Influence on eosinophil accumulation in the peritoneal cavity in vivo
Experimental: Effect of test-substance is conveniently determined by measurement of influence on PAF-induced eosinophil accumulation in the guinea-pig peritoneal cavity in vivo. In the guinea-pig, there is a substantial (up to 40%) resident population of eosinophils in the peritoneal cavity and eosinophil accumulation in the peritoneal cavity relative to control animals ca. 24 - 48 hrs. following injection of PAF i.p. at dosages of ca. 10µg/kg.
To esablish eosinophil accumulation, test animals receive 10µg/kg PAF i.p., 2 days prior to sacrifice. Smears from the peritoneal cavity are prepared employing Leishman's Stain after fixation with 95% methanol. At least 500 white cells are differentiated for each estimation. Test substance is administered s.c. via a minipump for four days prior to sacrifice.

dogs = assay: 30-week oral administration toxicity, dogs; assay type: in vivo
Experimental: (§1) 30-week oral administration of (±)-COMPOUND to rats and dogs indicate no toxicity at dosages up to 272 mg/kg/day in rats and up to 10 mg/kg/day in dogs. (±)-COMPOUND is found to have no embryolethal or teratogenic actions in the rat at dosages up to 300 mg/kg and in the rabbit at dosages up to 30 mg/kg.

Guinea-pigs [2] = assay: Reversal of bombesin-induced bronchospasm in vivo; conditions: i.v. at the height of bronchospasm induced by bombesin (ca. 500 ng/kg); one series of tests; of the order of
Experimental: (§2) Guinea pigs are anaesthetised with pentobarbital (30 mg/kg i.p.) and phenobarbital (100 mg/kg i.p.) and ventilated via a tracheal cannula (10 ml/kg, lHz). Ventilation is monitored either by a pressure transducer measuring air-flow (Konzett-Rossler method), or by a Fleisch flow transducer in line with the inspiratory circuit. When making measurements of flow, coincident pressure changes in the thorax are monitored directly via an intrathoracic trochar, permitting display of differential pressure relative to the trachea. From this information resistance and compliance are calculated at each inspiration. Test substance is, administered via an indwelling cannula within a jugular vein. Blood pressure is monitored at the carotid artery. Test substance is administered immediately before injection of a bronchoconstrictor agent - PAF (56 ng/kg), acetylcholine (32 µg/kg), histamine(10 µg/kg), serotonin (10 µg/kg), substance P ([…]) or leukotriene C4 (5 µg/kg).
Guinea-pigs are prepared for measurement of resistance and compliance as under lb^l above. Intravenous injection of bombes in (ca. 500 ng/kg) as a bolus, induces increased airways resistance which is sustained over a period of several minutes. Capacity of test-substance to reverse response when administered i.v. at the height of bombesin-induced bronchospasm serves as a measure of efficacy in reversing established bronchospasm.

rabbit = assay: Embryolethal or teratogenic actions, rabbit; assay type: in vivo
Experimental: as §1

Conscious guinea-pigs = assay: Inhibition of acetylcholine-mist bronchoconstriction following pulmonary administration; assay type: in vivo; conditions: inhalation of mist 10 mins. prior to 0.3% mist of acetylcholine
Experimental: Conscious guinea-pigs are subjected to inhalation of COMPOUND or placebo (vehicle) 10 mins. prior to explosure to a 0.3% mist of acetylcholine. COMPOUND is administered as a mist generated from COMPOUND in aqueous solution at concentrations of from 1 mg/ml to 0.001 mg/ml, using a jet nebuliser. Prolongation of time prior to collapse in treated groups as compared with placebo groups is taken as a measure of bronchodilator efficacy.

Guinea pigs [3] = assay: Suppression of airways hyperreactivity, sensitised animals (immune complexes); assay type: in vivo
Text: Guinea pigs are anaesthetised and airways resistance and compliance recorded as described under example lb^l above. […] Platelets are isolated and labelled with ^lllindium prior to intravenous infusion. Platelet accumulation is monitored by external crystal detectors [c.f. Morley et al. […] Allergic reaction is initiated by i.v. injection of preformed immune complexes (bovine y-globulin/ anti-bovine y-globulin), using a dose that is scarcely sufficient to induce bronchospasm at the first injection. By repeating the dose at regular (10 min.) intervals, bronchospasm of progressively increasing amplitude is evidenced. This effect is paralleled by an incremental retention of platelets within the airway vasculature. Following the last dose of immune complexes, the dose-effect relationship to histamine is re-defined. In animals so treated, induction of airways hyperreactivity is consistently observed.

healthy trial volunteers = assay: Tolerability and safety in healthy trial volunteers; assay type: in vivo, humans
Guinea pigs [4] = assay: Inhibition of bronchospasm in vivo (Konzett-Rossler preparation); conditions: dosages of the order of 1 mg/kg via jugular vein immediately before PAF, acetylcholine, histamine, serotonin, substance P or leukotriene C4
Experimental: as §2

rats = assay: 30-week oral administration toxicity, rats; assay type: in vivo
Experimental: as §1

rat = assay: Embryolethal or teratogenic actions, rat; assay type: in vivo
Experimental: as §1

Guinea-pigs [5] = assay: Suppression of airways hyperreactivity, PAF-treated animals; assay type: in vivo
Experimental: Guinea-pigs are anaesthetised and prepared for recording of lung function as described under example lb^l above. Intravenous injection of low dose bombesin (240 ng/kg) establishes airways sensitivity to spasmogens. Following infusion of PAF over lhr. […] Induction of airways hyperreactivity by PAF is a platelet-dependent phenomenon and development of. airways hyperreactivity in this model in paralleled by observed accumulation of platelets within the thorax.

[6] = test system: guinea-pig tracheal ring preparations; assay: Bronchospasmolytic activity in vitro, isolated guinea-pig trachea; assay type: cell-based; conditions: for IC50: guinea-pig tracheal rings, one series of tests
Experimental: The trachea is excised from freshly sacrificed guinea-pigs and transected in the transverse plane to give rings of tissue of ca. 2 mm. Individual rings are mounted vertically on stainless steel supports, one of which is fixed at the base of an organ bath, the other being attached to a tension transducer. The rings are bathed in modified Tyrode solution at 37°C and gassed with O2/CO2 (95:5, v/v). Rings prepared in this manner, preloaded with 1 g, generate spontaneous tone and, after a period of equilibration, relax on addition of spasmolytic drugs. Tension can be enhanced by addition of carbachol (10-^6M) or histamine (10-^4M). To ascertain spasmolytic activity, test substances are dissolved in physiological saline and added in increasing quantities to the organ bath at 5 min. intervals to provide a cumulative concentration-effect curve.

[7] = test system: subjects exhibiting heart insufficiency; assay: Tolerability and safety in subjects exhibiting heart insufficiency; assay type: in vivo, humans
[8] = intravenous dosages of up to 100 mg by perfusion over 10 mins.

COc1cc2c(cc1OC)[C@@H]1CN(C)CC[C@@H]1N=C2c1ccc(NC(C)=O)cc1 (racemic) [(±)-COMPOUND, cis-6-(4-acetanilido)-8,9-dimethoxy-2-methyl-1,2,3,4,4a,10b-hexahydrobenzo[c][1,6]naphthyridin]
PAF-induced eosinophil accumulation ([1]; of the order of 2 mg/kg/day s.c. via minipump for four days, animals receiving 10µg/kg PAF i.p.): inhibition of eosinophil accumulation
resident eosinophil population ([1]; of the order of 10 mg/kg/day s.c. via minipump for four days, non-PAF-treated animals, vs untreated controls): decrease
dosages with no toxicity (dogs): up to 10 mg/kg/day
ID50 values, abrogation of bombesin-induced bronchospasm (Guinea-pigs [2]): 0.08 to 0.48 mg/kg
dosages with no embryolethal or teratogenic actions (rabbit): up to 30 mg/kg
amount introduced into the exposure chamber giving detectable protection against bronchospasm (Conscious guinea-pigs): ≥ 2 µg
dosage giving suppression of induced airways resistance (Guinea pigs [3]; advance administration i.v., ca., compared with untreated controls): ≥ 1 mg/kg
effective dose, inhibition of airways hyperreactivity (Guinea pigs [3]; one test series): 0.35 mg/kg
tolerability (healthy trial volunteers; 600 mg once daily for 3 days (6 subjects)): well tolerated
single oral dosages with no occurrence of side effects or relevant changes in laboratory parameters (healthy trial volunteers; healthy trial volunteers (27 subjects)): up to 800 mg
constrictor response to bronchoconstrictor agents (Guinea pigs [4]): strongly inhibits
dosages with no toxicity (rats): up to 272 mg/kg/day
dosages with no embryolethal or teratogenic actions (rat): up to 300 mg/kg
thoracic platelet accumulation in response to PAF (Guinea-pigs [5]; 1 mg/kg bolus and infusion at 1 mg/kg/hr i.v.): inhibited
dosage giving suppression of airways hyperreactivity induction (Guinea-pigs [5]; advance administration i.v., ca., PAF infusion 600 ng/kg, bombesin 240 ng/kg): ≥ 0.1 mg/kg
ID50, suppression of airways hyperreactivity induction (Guinea-pigs [5]; i.v., one series of tests, of the order of): ~1 mg/kg
relaxant action on tracheal rings from animals desensitised to β2-agonist therapy ([6]; animals with prolonged exposure to high-dose isoprenaline in vivo): not influenced
IC50 ([6]; carbachol (10-^6M), read-out: IC50 values for inhibition of contraction due to carbachol): 5.8 µM
IC50 ([6]; histamine (10-^4M), read-out: IC50 values for inhibition of contraction due to histamine): 1.7 µM
IC50 ([6]; spontaneous tone, read-out: IC50 values for inhibition of spontaneous tone): 3.2 µM
relaxant action in the presence of propanolol ([6]; propanolol (1 uM)): undiminished
arterial pressure [7, 8]: light fall
heart frequency [7, 8]: increase
intravenous dosages well tolerated ([7]; perfusion over 10 mins., subjects exhibiting heart insufficiency): up to 100 mg
systolic blood-pressure ([7]; placebo controlled trials, after 60 mins.): light increase
heart frequency ([7]; placebo controlled trials, oral): no relevant change
oral dosages with no significant side effects, well tolerated ([7]; subjects exhibiting heart insufficiency, oral): up to 600 mg
